# Calls of active or inactive are those of the source. The rule behind the calls is not given here.
# Key:
# [1] = Synergistic cytotoxicity against rat CTX TNA2 cells assessed as combination index at 134.9 uM after 48 hrs in presence of 103 uM TMZ by MTT assay; type: cell-based; settings: ctx tna2, 48 h
# DBTRG-05MG [2] = experiment: Induction of apoptosis in human DBTRG-05MG cells assessed as phosphorylated caspace-9 expression at 112.4 uM after 48 hrs by Western blot analysis (reference value: 1); type: functional
# DBTRG-05MG [3] = experiment: Induction of apoptosis in human DBTRG-05MG cells assessed as phosphorylated PARP expression at 112.4 uM after 48 hrs by Western blot analysis (reference value: 1); type: functional
# DBTRG-05MG [4] = experiment: Induction of cell cycle arrest in human DBTRG-05MG cells assessed as accumulation at G2/M phase at 112.4 uM after 12 hrs in presence of TMZ by propidium iodide staining based flow cytometric analysis (reference value: 30.08 +/- 0.1%); type: functional
# [5] = Effect on JNK expression in rat RG2 cells at 112.4uM after 48 hrs in presence of TMZ by Western blot analysis (reference value: 1); type: functional
# [6] = biological target: Serine/threonine-protein kinase AKT (Homo sapiens) (UniProt P31751+Q9Y243+P31749); experiment: Inhibition of AKT phosphorylation at S473 residues in human DBTRG-05MG cells at 112.4uM after 48 hrs in presence of TMZ by Western blot analysis; type: cell-based
# Sequence of Serine/threonine-protein kinase AKT (Homo sapiens) (P31749 whole entry, looked up): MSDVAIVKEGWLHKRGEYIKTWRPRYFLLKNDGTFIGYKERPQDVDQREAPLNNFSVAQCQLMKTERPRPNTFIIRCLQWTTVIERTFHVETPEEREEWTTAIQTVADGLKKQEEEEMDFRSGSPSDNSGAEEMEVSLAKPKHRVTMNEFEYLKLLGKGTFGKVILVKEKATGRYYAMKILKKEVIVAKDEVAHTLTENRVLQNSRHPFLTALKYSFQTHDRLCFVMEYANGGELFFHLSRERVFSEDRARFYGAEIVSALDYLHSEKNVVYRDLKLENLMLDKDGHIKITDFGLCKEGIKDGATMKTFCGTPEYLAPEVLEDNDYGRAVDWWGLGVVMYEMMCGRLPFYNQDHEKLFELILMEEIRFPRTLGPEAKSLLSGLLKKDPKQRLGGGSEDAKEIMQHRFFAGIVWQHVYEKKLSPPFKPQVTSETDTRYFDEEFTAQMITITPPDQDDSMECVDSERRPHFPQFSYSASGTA
# Sequence of Serine/threonine-protein kinase AKT (Homo sapiens) (P31751 whole entry, looked up): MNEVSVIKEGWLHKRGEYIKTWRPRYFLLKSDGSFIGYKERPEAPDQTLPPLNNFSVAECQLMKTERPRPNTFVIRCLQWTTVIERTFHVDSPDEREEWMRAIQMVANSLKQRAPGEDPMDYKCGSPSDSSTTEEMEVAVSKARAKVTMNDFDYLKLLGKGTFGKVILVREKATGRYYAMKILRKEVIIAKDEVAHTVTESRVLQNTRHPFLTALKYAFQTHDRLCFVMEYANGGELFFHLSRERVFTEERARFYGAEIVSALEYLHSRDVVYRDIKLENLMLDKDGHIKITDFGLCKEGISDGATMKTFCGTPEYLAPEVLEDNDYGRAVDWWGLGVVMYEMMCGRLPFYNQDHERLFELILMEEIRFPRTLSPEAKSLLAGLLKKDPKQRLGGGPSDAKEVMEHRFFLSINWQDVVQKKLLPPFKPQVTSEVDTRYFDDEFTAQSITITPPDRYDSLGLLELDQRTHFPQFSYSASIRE
# Sequence of Serine/threonine-protein kinase AKT (Homo sapiens) (Q9Y243 whole entry, looked up): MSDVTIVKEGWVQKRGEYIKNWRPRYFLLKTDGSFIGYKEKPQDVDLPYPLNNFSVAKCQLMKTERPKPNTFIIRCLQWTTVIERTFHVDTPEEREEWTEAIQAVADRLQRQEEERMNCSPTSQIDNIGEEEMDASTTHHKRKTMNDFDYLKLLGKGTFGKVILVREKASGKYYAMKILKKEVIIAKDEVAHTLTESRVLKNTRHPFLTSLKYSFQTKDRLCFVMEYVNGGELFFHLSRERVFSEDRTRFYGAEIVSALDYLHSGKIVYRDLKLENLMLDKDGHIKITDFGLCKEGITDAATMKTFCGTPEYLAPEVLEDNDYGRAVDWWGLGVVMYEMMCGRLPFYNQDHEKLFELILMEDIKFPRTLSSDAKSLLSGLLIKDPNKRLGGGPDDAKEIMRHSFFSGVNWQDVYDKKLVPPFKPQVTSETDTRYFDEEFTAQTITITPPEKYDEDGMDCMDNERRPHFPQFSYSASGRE
# [7] = Toxicity in BALB/c mouse xenografted with DBTRG-05MG cells assessed as reduction in body weight at 75 mg/kg, sc for every 2 days for 20 days; type: organism-based; settings: in vivo, 480 h, time 20 day
# DBTRG-05MG [8] = experiment: Antitumour activity against human DBTRG-05MG cells xenografted in BALB/c nude mouse assessed as increase in survival time at 75 mg/kg, sc for every 2 days for 20 days and measured every 2 days; type: functional, organism-based; settings: time 20.0 day
# DBTRG-05MG [9] = experiment: Induction of apoptosis in human DBTRG-05MG cells assessed as cleaved caspace-9 expression at 112.4 uM after 48 hrs by Western blot analysis (reference value: 1); type: functional
# [10] = Synergistic cytotoxicity against rat CTX TNA2 cells assessed as synergistic effect index at 89.9 uM after 48 hrs in presence of 103 uM TMZ by MTT assay; type: cell-based; settings: ctx tna2, 48 h
# RG2 [11] = experiment: Induction of apoptosis in rat RG2 cells assessed as phosphorylated PARP expression at 112.4 uM after 48 hrs by Western blot analysis (reference value: 1); type: functional
# [12] = Synergistic cytotoxicity against rat CTX TNA2 cells assessed as synergistic effect index at 112.4 uM after 48 hrs in presence of 103 uM TMZ by MTT assay; type: cell-based; settings: ctx tna2, 48 h
# RG2 [13] = experiment: Synergistic cytotoxicity against rat RG2 cells assessed as synergistic effect index at 134.9 uM after 48 hrs in presence of 309 uM TMZ by MTT assay; type: functional
# RG2 [14] = experiment: Synergistic cytotoxicity against rat RG2 cells assessed as synergistic effect index at 134.9 uM after 48 hrs in presence of 206 uM TMZ by MTT assay; type: functional
# DBTRG-05MG [15] = experiment: Induction of cell cycle arrest in human DBTRG-05MG cells assessed as CyclinD1 expression at 112.4 uM after 48 hrs in presence of TMZ by Western blot analysis (reference value: 1); type: functional
# RG2 [16] = experiment: Induction of cell cycle arrest in rat RG2 cells assessed as accumulation at G2/M phase at 112.4 uM after 48 hrs by propidium iodide staining based flow cytometric analysis (reference value: 20.04 +/- 0.55%); type: functional
# DBTRG-05MG [17] = experiment: Synergistic cytotoxicity against human DBTRG-05MG cells assessed as synergistic effect index at 112.4 uM after 48 hrs in presence of 206 uM TMZ by MTT assay; type: functional
# RG2 [18] = experiment: Induction of cell cycle arrest in rat RG2 cells assessed as CyclinB1 expression at 112.4 uM after 48 hrs in presence of TMZ by Western blot analysis (reference value: 1); type: functional
# RG2 [19] = experiment: Induction of cell cycle arrest in rat RG2 cells assessed as CyclinA expression at 112.4 uM after 48 hrs in presence of TMZ by Western blot analysis (reference value: 1); type: functional
# RG2 [20] = experiment: Induction of apoptosis in rat RG2 cells assessed as increase in DNA fragmentation at 112.4 uM after 48 hrs in presence of TMZ by TUNEL assay; type: functional, cell-based
# RG2 [21] = experiment: Synergistic cytotoxicity against rat RG2 cells assessed as synergistic effect index at 89.9 uM after 48 hrs in presence of 206 uM TMZ by MTT assay; type: functional
# DBTRG-05MG [22] = experiment: Induction of cell cycle arrest in human DBTRG-05MG cells assessed as p53 expression at 112.4 uM after 48 hrs by Western blot analysis (reference value: 1); type: functional
# RG2 [23] = experiment: Induction of DNA damage in rat RG2 cells assessed as Chk1 phosphorylation at ser345 at 112.4 uM after 48 hrs in presence of TMZ by Western blot analysis (reference value: 1); type: functional
# RG2 [24] = experiment: Induction of cell cycle arrest in rat RG2 cells assessed as accumulation at G0/G1 phase at 112.4 uM after 24 hrs in presence of TMZ by propidium iodide staining based flow cytometric analysis (reference value: 57.81 +/- 1.9%); type: functional
# RG2 [25] = experiment: Induction of apoptosis in rat RG2 cells assessed as Bcl2 expression at 206 uM after 48 hrs by Western blot analysis (reference value: 1); type: functional
# RG2 [26] = experiment: Induction of apoptosis in rat RG2 cells assessed as cleaved caspace-3 expression at 206 uM after 48 hrs by Western blot analysis (reference value: 1); type: functional
# RG2 [27] = experiment: Induction of apoptosis in rat RG2 cells assessed as phosphorylated PARP expression at 206 uM after 48 hrs by Western blot analysis (reference value: 1); type: functional
# RG2 [28] = experiment: Induction of apoptosis in rat RG2 cells assessed as cleaved PARP expression at 206 uM after 48 hrs by Western blot analysis (reference value: 1); type: functional
# [29] = Effect on AKT expression in rat RG2 cells at 206 uM after 48 hrs by Western blot analysis (reference value: 1); type: functional
# RG2 [30] = experiment: Induction of apoptosis in rat RG2 cells assessed as phosphorylated caspace-9 expression at 206 uM after 48 hrs by Western blot analysis (reference value: 1); type: functional
# [31] = Effect on ERK expression in human DBTRG-05MG cells at 206 uM after 48 hrs by Western blot analysis (reference value: 1); type: functional
# DBTRG-05MG [32] = experiment: Induction of DNA damage in human DBTRG-05MG cells assessed as ATM phosphorylation at ser1981 residues at 206 uM after 48 hrs by Western blot analysis (reference value: 1); type: functional
# RG2 [33] = experiment: Induction of cell cycle arrest in rat RG2 cells assessed as CyclinA expression at 206 uM after 48 hrs by Western blot analysis (reference value: 1); type: functional
# [34] = Effect on AKT expression in human DBTRG-05MG cells at 206 uM after 48 hrs by Western blot analysis (reference value: 1); type: functional
# DBTRG-05MG [35] = experiment: Induction of apoptosis in human DBTRG-05MG cells assessed as increase in DNA fragmentation at 206 uM after 48 hrs by TUNEL assay; type: functional, cell-based
compound,measurement,setting,value
C[C@@H]1CC[C@H]2C(C)(C)[C@H]3C[C@@]12CC[C@@]3(C)O [CEDROL],CI,[1],1.23
same,fold change (FC),DBTRG-05MG [2],0.8
same,fold change (FC),DBTRG-05MG [3],0.7
same,Activity,DBTRG-05MG [4],33.68%
same,fold change (FC),[5],0.5
same,fold change (FC),[6],0.5
same,Activity,[7],Non-Toxic
same,Activity,DBTRG-05MG [8],Active
same,fold change (FC),DBTRG-05MG [9],1.1
same,Activity_index,[10],0.24
same,fold change (FC),RG2 [11],0.6
same,Activity_index,[12],0.26
same,Activity_index,RG2 [13],0.89
same,Activity_index,RG2 [14],0.91
same,fold change (FC),DBTRG-05MG [15],0.4
same,Activity,RG2 [16],20.33%
same,Activity_index,DBTRG-05MG [17],0.88
same,fold change (FC),RG2 [18],0.7
same,fold change (FC),RG2 [19],0.7
same,Activity,RG2 [20],Active
same,Activity_index,RG2 [21],0.69
same,fold change (FC),DBTRG-05MG [22],0.9
same,fold change (FC),RG2 [23],3.5
same,Activity,RG2 [24],61.35%
Cn1nnc2c(C(N)=O)ncn2c1=O [TEMOZOLOMIDE],fold change (FC),RG2 [25],1.3
same,fold change (FC),RG2 [26],2.5
same,fold change (FC),RG2 [27],0.4
same,fold change (FC),RG2 [28],1.5
same,fold change (FC),[29],0.6
same,fold change (FC),RG2 [30],0.8
same,fold change (FC),[31],0.9
same,fold change (FC),DBTRG-05MG [32],2.8
same,fold change (FC),RG2 [33],1.9
same,fold change (FC),[34],1
same,Activity,DBTRG-05MG [35],Active

# Reference: ChEMBL document CHEMBL4699511, “Cedrol, a Sesquiterpene Alcohol, Enhances the Anticancer Efficacy of Temozolomide in Attenuating Drug Resistance via Regulation of the DNA Damage Response and MGMT Expression” (J Nat Prod, 2020)
